Laboratory results taken from patent publication US20230145822A1 (priority 2020, published 2023).
“Also recorded” adds a separate entry of the source. Like-named read-outs stand apart in the source and are kept apart here.

How the values were obtained:
human PrP^C = human PrP^C (Homo sapiens, UniProt P04156); assay type: cell-based
NEGR-1 = assay type: cell-based
mouse PrP^C mRNA = assay type: cell-based
PrP^C mRNA [1] = assay type: cell-based, human
PrP^C mRNA [2] = assay type: cell-based, mouse
PrP^C = PrP^C (Mus musculus, UniProt P04925); assay type: cell-based; details: 1-10 μM, 24 h, PNGase-F
EGFP-PrP^C = assay type: cell-based, mouse; details: 24 h, 3-10 μM
LC3II = assay type: cell-based
ZR-75 cells = details: human
RML prion strain = assay type: cell-based, mouse

Chain of PrP^C (P04925 23-254 limits assumed): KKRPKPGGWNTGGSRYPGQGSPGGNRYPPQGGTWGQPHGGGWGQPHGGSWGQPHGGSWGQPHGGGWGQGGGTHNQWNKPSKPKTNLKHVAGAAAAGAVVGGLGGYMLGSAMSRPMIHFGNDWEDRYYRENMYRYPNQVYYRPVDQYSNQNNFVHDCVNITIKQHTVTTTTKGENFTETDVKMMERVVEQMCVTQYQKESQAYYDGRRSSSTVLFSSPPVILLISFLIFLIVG

Q: How did the IC25 (human PrP^C) turn out when `COc1cc(C2CC(=O)Nc3c2cnn3-c2ccc(I)cc2)ccc1O` (stereo not shown) [GC6] was run?
A: The IC25 was “sub-micromolar”.

Q: And the IC50 (human PrP^C)?
A: Its IC50 is “sub-micromolar”.

Q: What about the “effect on PrP^C expression” value (human PrP^C) of the same compound?
A: The value was “even more prominent activity in ZR-75 cells than in HEK293 cells”.

Q: What does the source list for `COc1cc(C2CC(=O)Nc3c2cnn3-c2ccc(Br)cc2)ccc1O` (stereo not shown) [SM875]?
A: effect on control protein NEGR-1 (NEGR-1): did not produce any effect; PrP^C mRNA levels (mouse PrP^C mRNA): does not decrease PrP^C mRNA levels; PrP^C mRNA levels (PrP^C mRNA [1]): does not decrease PrP^C mRNA levels; PrP^C mRNA levels (PrP^C mRNA [2]): does not decrease PrP^C mRNA levels; alpha-cleavage (C1 PrP) (PrP^C): dose-dependent increase of Cl PrP; cell surface EGFP-PrP^C (EGFP-PrP^C): drastic reduction; LC3II levels (LC3II): large increase; also recorded: much smaller increase; cytotoxicity (HEK293 cells): evident cytotoxicity; estimated median lethal dose, LD50 (HEK293 cells; human): 4.6 µM

Q: For `OC[C@H]1O[C@H](O[C@H]2O[C@H](CO)[C@@H](O)[C@H](O)[C@H]2O)[C@H](O)[C@@H](O)[C@@H]1O` [trehalose, reference compound], which LC3II levels (LC3II) is on record?
A: Its LC3II levels is “increased LC3-II levels”.

Q: Which “effect on SM875-induced decrease of PrP^C levels” value (human PrP^C) does the source give for `CO/C1=C\C(C)=C\[C@@H](C)[C@@H](O)[C@@H](C)C/C(C)=C/C=C/[C@H](OC)[C@@H]([C@@H](C)[C@@H](O)[C@H](C)[C@@]2(O)C[C@@H](O)[C@H](C)[C@@H](C(C)C)O2)OC1=O` [BAF, Bafilomycin A1, reference compound] here?
A: Its value is “almost completely prevents”.

Q: Which “concentration from which human PrP^C expression is suppressed” value (human PrP^C) does the source give for `OCC(O)Cn1c2ccc(Br)cc2c2cc(Br)ccc21` (stereo not shown) [SM930] here?
A: The value was no less than 3 µM.

Q: And the “concentration inducing cell death” value (HEK293 cells; human)?
A: Its value is 30 µM.

Q: What about the “concentration inducing cell death” value (ZR-75 cells) of the same compound?
A: Its value is 30 µM.

Q: `COc1cc2c(cc1OC)CN(C(=O)c1cccc(Cl)c1)CC2` [SM950] was tested. Which “concentration from which human PrP^C expression is suppressed” value (human PrP^C) did it give?
A: The value was no less than 1 µM.

Q: What about the “PrP^C mRNA levels” value (mouse PrP^C mRNA) of the same compound?
A: Its value is “do not suppress mouse PrP^C mRNA levels”.

Q: And the “concentration inducing cell death” value (HEK293 cells; human)?
A: Its value is no less than 3 µM.

Q: And the “concentration inducing cell death” value (ZR-75 cells)?
A: The value was 30 µM.

Q: Which results are given for `COc1cc(C2CC(=O)Nc3c2cnn3-c2cccc(F)c2)ccc1O` (stereo not shown) [SM898]?
A: estimated median lethal dose, LD50 (HEK293 cells; human): 37.9 µM; reduction of cytotoxicity versus SM875 (HEK293 cells; human): ~3 times

Q: For `Cc1ccccc1Cn1c(=O)c2c(nc3n(-c4ccccc4O)c(C)c(C)n23)n(C)c1=O` [SM940], which “concentration from which human PrP^C expression is suppressed” value (human PrP^C) is on record?
A: Its value is no less than 3 µM.

Q: What about the “PrP^C mRNA levels” value (mouse PrP^C mRNA) of the same compound?
A: Its value is “do not suppress mouse PrP^C mRNA levels”.

Q: What about the “concentration inducing cell death” value (HEK293 cells; human) of the same compound?
A: The value was greater than 30 µM.

Q: And the “concentration inducing cell death” value (ZR-75 cells)?
A: Its value is greater than 30 µM.

Q: For Fe(III)-TMPyP, which “prion levels (PK-resistant PrP)” value (RML prion strain) is on record?
A: The value was “inhibits prion levels”.
